Data reported in patent US20240391931A1 (Bristol-Myers Squibb Company, priority 2021, published 2024).

Key:
EGFR = EGFR (Homo sapiens, UniProt P00533); assay: EGFR signaling (pEGFR Tyr1068/total EGFR MSD) in A431 cells; assay type: cell-based; set-up: endogenous in cells; host or cells: A431, N87; conditions: for EC50: A431 cells, read-out: A431 pEGFR EC50; for Selectivity A431 EC50/BT474 EC50: ratio A431 pEGFR EC50 to BT474 pHER2 EC50; for Selectivity A431 EC50/HEKYVMA EC50: ratio A431 pEGFR EC50 to HEK YVMA pHER2 EC50
In short: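 EC50 was fitted with variable Hill slope from MSD pTyr1068/total EGFR ratios, expressed as % DMSO control. A431 cells were starved overnight, then exposed 1.5 h to eight concentrations from 10 to 0.005 μM in 1% FBS before a 10-min 100 ng/mL EGF pulse.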

EGFR WT = target: T1, EGFR WT (Homo sapiens, UniProt P00533); assay: Enzymatic assay EGFR WT (method c); assay type: biochemical; conditions: [EGFR WT]=2 nM, [ATP]=1 mM, [Peptide 22]=1 μM
T1 construct: purchased Thermo Fisher, Carlsbad, CA ERBB1 PR7295B
In short: (§1)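 Initial rates over 0–3600 s, read as substrate-to-product conversion by capillary electrophoresis, were converted to percent inhibition and fitted with a variable-slope curve to give IC50. Conditions: EGFR WT 2 nM with 1 mM ATP; HER2 YVMA 5 nM or HER2 WT 12.5 nM, each with 25 μM ATP. All used 1 μM Peptide 22 in pH 7.5 HEPES/Mn/Mg buffer.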

HER2 WT = target: T2, HER2 WT (Homo sapiens, UniProt P04626); assay: Enzymatic assay HER2 WT (method a); assay type: biochemical; conditions: [HER2 WT]=12.5 nM, [ATP]=25 μM, [Peptide 22]=1 μM
T2 construct: purchased ProQinase, Freiburg, Germany ERBB2 0108-0000-1
In short: as §1

HER2YVMA = HER2YVMA (Homo sapiens, UniProt P04626, INS775YVMA); assay: Enzymatic assay HER2YVMA (method b); assay type: biochemical; set-up: purchased Viva biotech, Shanghai, China custom purification; conditions: [HER2YVMA]=5 nM, [ATP]=25 μM, [Peptide 22]=1 μM
In short: as §1

T2 sequence (P04626 23-1255): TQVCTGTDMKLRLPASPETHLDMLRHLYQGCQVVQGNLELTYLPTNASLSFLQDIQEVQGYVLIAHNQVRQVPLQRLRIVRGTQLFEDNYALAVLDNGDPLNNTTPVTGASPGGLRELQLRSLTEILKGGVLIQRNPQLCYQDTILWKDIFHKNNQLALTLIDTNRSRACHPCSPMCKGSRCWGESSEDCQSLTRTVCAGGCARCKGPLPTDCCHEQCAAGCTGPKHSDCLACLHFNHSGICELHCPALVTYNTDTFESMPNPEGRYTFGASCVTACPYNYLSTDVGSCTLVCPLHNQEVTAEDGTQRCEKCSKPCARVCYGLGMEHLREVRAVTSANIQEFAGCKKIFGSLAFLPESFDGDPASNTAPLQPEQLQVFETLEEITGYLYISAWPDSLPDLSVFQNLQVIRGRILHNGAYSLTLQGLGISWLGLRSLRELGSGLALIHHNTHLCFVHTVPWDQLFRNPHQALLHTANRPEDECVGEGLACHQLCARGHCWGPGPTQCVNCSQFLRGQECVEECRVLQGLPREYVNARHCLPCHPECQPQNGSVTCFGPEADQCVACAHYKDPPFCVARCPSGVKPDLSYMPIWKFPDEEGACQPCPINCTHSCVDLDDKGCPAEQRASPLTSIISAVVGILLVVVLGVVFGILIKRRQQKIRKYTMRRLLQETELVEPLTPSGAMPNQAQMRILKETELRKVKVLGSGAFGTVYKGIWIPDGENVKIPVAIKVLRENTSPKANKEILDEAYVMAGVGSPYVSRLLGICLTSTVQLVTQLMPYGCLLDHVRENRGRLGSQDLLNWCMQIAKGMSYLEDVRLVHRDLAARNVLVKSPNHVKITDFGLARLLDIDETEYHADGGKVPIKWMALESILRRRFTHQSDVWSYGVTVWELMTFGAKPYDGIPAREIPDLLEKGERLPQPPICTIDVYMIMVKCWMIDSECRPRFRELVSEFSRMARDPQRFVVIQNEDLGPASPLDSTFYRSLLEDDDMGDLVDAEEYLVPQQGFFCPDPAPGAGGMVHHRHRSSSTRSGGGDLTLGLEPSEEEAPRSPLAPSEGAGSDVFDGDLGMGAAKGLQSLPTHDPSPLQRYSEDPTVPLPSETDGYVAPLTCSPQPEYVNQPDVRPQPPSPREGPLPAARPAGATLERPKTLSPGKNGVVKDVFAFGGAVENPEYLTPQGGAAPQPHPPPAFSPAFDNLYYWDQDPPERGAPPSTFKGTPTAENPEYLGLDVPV
Sequence of EGFR (P00533 25-1210): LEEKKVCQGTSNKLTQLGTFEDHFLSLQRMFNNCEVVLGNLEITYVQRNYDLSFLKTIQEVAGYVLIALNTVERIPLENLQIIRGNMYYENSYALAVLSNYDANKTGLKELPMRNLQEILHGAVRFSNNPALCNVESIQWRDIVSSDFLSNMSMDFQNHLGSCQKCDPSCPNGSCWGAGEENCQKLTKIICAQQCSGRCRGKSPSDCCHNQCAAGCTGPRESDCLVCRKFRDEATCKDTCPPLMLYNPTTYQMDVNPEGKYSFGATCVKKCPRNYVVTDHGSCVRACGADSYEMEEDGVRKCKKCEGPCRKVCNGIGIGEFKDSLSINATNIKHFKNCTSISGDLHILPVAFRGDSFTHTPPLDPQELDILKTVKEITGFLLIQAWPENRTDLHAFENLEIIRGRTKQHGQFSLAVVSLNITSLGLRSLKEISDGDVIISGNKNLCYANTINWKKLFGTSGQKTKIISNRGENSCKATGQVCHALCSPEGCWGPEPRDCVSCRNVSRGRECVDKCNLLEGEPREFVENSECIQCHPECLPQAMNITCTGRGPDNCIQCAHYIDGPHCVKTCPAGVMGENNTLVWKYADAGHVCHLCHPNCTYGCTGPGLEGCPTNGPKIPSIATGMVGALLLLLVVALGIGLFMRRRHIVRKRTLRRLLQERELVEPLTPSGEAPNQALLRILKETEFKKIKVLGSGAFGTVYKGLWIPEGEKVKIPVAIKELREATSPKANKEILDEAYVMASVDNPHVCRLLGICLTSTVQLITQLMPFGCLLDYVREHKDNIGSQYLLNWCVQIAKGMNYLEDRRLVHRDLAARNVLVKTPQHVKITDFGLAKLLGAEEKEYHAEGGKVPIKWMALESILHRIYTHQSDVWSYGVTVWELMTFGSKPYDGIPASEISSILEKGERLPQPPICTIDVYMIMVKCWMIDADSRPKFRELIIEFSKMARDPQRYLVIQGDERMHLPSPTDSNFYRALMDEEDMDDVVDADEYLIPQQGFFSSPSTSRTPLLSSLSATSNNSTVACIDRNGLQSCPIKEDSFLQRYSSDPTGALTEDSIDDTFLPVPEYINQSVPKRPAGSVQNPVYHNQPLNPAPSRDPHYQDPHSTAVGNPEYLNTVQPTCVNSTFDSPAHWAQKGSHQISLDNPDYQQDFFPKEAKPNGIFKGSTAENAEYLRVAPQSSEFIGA
T1 sequence (P00533 25-1210): as above
Sequence of HER2YVMA (P04626 with tags, fused parts or gaps INS775YVMA): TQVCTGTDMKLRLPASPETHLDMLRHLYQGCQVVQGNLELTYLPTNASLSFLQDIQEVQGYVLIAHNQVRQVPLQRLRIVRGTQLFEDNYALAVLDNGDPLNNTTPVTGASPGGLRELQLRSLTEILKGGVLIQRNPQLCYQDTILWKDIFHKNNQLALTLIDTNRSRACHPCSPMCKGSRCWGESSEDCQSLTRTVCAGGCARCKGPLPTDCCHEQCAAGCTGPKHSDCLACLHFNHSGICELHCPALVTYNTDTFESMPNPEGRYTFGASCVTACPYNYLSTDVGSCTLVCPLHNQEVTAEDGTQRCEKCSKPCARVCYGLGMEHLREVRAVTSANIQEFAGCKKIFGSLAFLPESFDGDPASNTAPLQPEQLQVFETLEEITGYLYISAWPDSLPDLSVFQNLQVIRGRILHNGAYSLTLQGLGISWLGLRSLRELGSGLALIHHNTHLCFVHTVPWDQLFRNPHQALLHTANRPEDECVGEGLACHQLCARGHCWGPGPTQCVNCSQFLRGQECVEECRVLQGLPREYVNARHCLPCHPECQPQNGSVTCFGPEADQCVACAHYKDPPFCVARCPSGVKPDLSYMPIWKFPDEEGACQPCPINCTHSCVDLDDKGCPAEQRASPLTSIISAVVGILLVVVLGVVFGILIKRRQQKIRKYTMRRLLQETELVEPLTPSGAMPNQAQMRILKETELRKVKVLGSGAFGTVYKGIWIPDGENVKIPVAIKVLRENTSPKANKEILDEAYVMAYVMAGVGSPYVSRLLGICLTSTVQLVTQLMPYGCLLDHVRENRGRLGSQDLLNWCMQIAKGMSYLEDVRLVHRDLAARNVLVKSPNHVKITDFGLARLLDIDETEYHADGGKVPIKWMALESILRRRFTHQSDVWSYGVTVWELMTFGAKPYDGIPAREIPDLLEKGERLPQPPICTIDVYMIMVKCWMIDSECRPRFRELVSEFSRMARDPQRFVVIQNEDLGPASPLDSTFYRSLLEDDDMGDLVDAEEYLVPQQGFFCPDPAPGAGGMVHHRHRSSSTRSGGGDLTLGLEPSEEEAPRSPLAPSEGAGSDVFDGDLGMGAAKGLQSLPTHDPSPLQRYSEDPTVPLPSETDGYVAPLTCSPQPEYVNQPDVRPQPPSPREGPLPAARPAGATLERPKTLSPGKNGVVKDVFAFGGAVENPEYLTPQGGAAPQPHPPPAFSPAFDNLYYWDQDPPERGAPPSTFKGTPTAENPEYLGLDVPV

Row | Compound | EC50 (EGFR) | Selectivity A431 EC50/BT474 EC50 (EGFR) | Selectivity A431 EC50/HEKYVMA EC50 (EGFR) | IC50 (EGFR WT) | IC50 (HER2 WT) | IC50 (HER2YVMA)
1 | Cc1ccc(Oc2ccc(Nc3ncnc4sc5c(c34)CCN(C(=O)/C=C/CNC3CCOC3)C5)cc2C)cn1 (stereo not drawn) [Compound 47] | 100 to 1000 nM | C (C: ≥ 10 and < 20) | C (C: ≥ 10 and < 20) | 1 to 10 µM | < 100 nM | < 100 nM
2 | Cc1ccc(Oc2ccc(Nc3ncnc4sc5c(c34)CCN(C(=O)/C=C/CNCC3CN(C)CCO3)C5)cc2C)cn1 (stereo not drawn) [Compound 48] | 100 to 1000 nM | B (B: ≥ 20 and < 100) | B (B: ≥ 20 and < 100) | > 10 µM | < 100 nM | < 100 nM
3 | Cc1ccc(Oc2ccc(Nc3ncnc4sc5c(c34)CCN(C(=O)/C=C/CNCc3cc(C)n[nH]3)C5)cc2C)cn1 [Compound 49] | 100 to 1000 nM | B (B: ≥ 20 and < 100) | D (D: ≥ 5 and < 10) | 1 to 10 µM | < 100 nM | < 100 nM
4 | CC(=O)N1CCN(C/C=C/C(=O)N2CCc3c(sc4ncnc(Nc5ccc(Oc6ccc(C)nc6)c(C)c5)c34)C2)CC1 [Compound 51] | 1000 to 10000 nM | C (C: ≥ 10 and < 20) | E (E: >1 and < 5) | > 10 µM | < 100 nM | 100 to 1000 nM
5 | Cc1ccc(Oc2ccc(Nc3ncnc4sc5c(c34)CCN(C(=O)/C=C/CNCc3ccsc3)C5)cc2C)cn1 [Compound 52] | < 100 nM | D (D: ≥ 5 and < 10) | C (C: ≥ 10 and < 20) | 1 to 10 µM | < 100 nM | < 100 nM
6 | Cc1ccc(Oc2ccc(Nc3ncnc4sc5c(c34)CCN(C(=O)/C=C/CN3CC(O)C3)C5)cc2C)cn1 [Compound 53] | 1000 to 10000 nM | C (C: ≥ 10 and < 20) | D (D: ≥ 5 and < 10) | > 10 µM | < 100 nM | < 100 nM
7 | Cc1ccc(Oc2ccc(Nc3ncnc4sc5c(c34)CCN(C(=O)/C=C/CNC3CCC3)C5)cc2C)cn1 [Compound 54] | 100 to 1000 nM | D (D: ≥ 5 and < 10) | D (D: ≥ 5 and < 10) | > 10 µM | < 100 nM | < 100 nM
8 | Cc1ccc(Oc2ccc(Nc3ncnc4sc5c(c34)CCN(C(=O)/C=C/CN3CC=CCC3)C5)cc2C)cn1 [Compound 55] | 100 to 1000 nM | B (B: ≥ 20 and < 100) | B (B: ≥ 20 and < 100) | > 10 µM | < 100 nM | < 100 nM
9 | CON(C)C/C=C/C(=O)N1CCc2c(sc3ncnc(Nc4ccc(Oc5ccc(C)nc5)c(C)c4)c23)C1 [Compound 56] | 1000 to 10000 nM | C (C: ≥ 10 and < 20) | B (B: ≥ 20 and < 100) | > 10 µM | 100 to 1000 nM | 100 to 1000 nM
10 | Cc1ccc(Oc2ccc(Nc3ncnc4sc5c(c34)CCN(C(=O)/C=C/CN3CC4(C3)CS(=O)(=O)C4)C5)cc2C)cn1 [Compound 57] | < 100 nM | D (D: ≥ 5 and < 10) | D (D: ≥ 5 and < 10) | > 10 µM | < 100 nM | < 100 nM
11 | Cc1ccc(Oc2ccc(Nc3ncnc4sc5c(c34)CCN(C(=O)/C=C/CN3CCN4C(=O)CCC4C3)C5)cc2C)cn1 (stereo not drawn) [Compound 58] | 1000 to 10000 nM | C (C: ≥ 10 and < 20) | D (D: ≥ 5 and < 10) | > 10 µM | 100 to 1000 nM | 100 to 1000 nM
12 | COCCN1CCN(C/C=C/C(=O)N2CCc3c(sc4ncnc(Nc5ccc(Oc6ccc(C)nc6)c(C)c5)c34)C2)CC1 [Compound 59] | 100 to 1000 nM | B (B: ≥ 20 and < 100) | C (C: ≥ 10 and < 20) | > 10 µM | < 100 nM | 100 to 1000 nM
13 | Cc1ccc(Oc2ccc(Nc3ncnc4sc5c(c34)CCN(C(=O)/C=C/CN3CCn4cc(C(F)(F)F)nc4C3)C5)cc2C)cn1 [Compound 61] | > 10000 nM | B (B: ≥ 20 and < 100) | C (C: ≥ 10 and < 20) | > 10 µM | 1000 to 10000 nM | 1000 to 10000 nM
14 | Cc1ccc(Oc2ccc(Nc3ncnc4sc5c(c34)CCN(C(=O)/C=C/CN3CCC(n4ccnc4)CC3)C5)cc2C)cn1 [Compound 62] | 100 to 1000 nM | B (B: ≥ 20 and < 100) | E (E: >1 and < 5) | > 10 µM | < 100 nM | < 100 nM
15 | Cc1cc(Nc2ncnc3sc4c(c23)CCN(C(=O)/C=C/CN(C)C)C4)ccc1Oc1cccc(B(O)O)c1 [Compound 64, (E)-(3-(4-((7-(4-(dimethylamino)but-2-enoyl)-5,6,7,8-tetrahydropyrido[4′,3′:4,5]thieno[2,3-d]pyrimidin-4-yl)amino)-2-methylphenoxy)phenyl)boronic acid] | 100 to 1000 nM | C (C: ≥ 10 and < 20) | E (E: >1 and < 5) | 1 to 10 µM | < 100 nM | < 100 nM
16 | Cc1ccc(Oc2ccc(Nc3ncnc4sc5c(c34)CCN(C(=O)/C=C/CNCCO)C5)cc2C)cn1 [Compound 65] | 100 to 1000 nM | D (D: ≥ 5 and < 10) | E (E: >1 and < 5) | 1 to 10 µM | < 100 nM | < 100 nM
17 | Cc1ccc(Oc2ccc(Nc3ncnc4sc5c(c34)CCN(C(=O)/C=C/CN3C[C@H]4CC[C@@H](C3)O4)C5)cc2C)cn1 [Compound 66] | 100 to 1000 nM | C (C: ≥ 10 and < 20) | C (C: ≥ 10 and < 20) | > 10 µM | < 100 nM | < 100 nM
18 | Cc1ccc(Oc2ccc(Nc3ncnc4sc5c(c34)CCN(C(=O)/C=C/CN3CCC4(CCOC4)C3)C5)cc2C)cn1 (stereo not drawn) [Compound 67] | < 100 nM | D (D: ≥ 5 and < 10) | D (D: ≥ 5 and < 10) | > 10 µM | < 100 nM | < 100 nM
19 | Cc1ccc(Oc2ccc(Nc3ncnc4sc5c(c34)CCN(C(=O)/C=C/CN[C@H]3CC[C@H](OC4CC4)CC3)C5)cc2C)cn1 [Compound 68] | < 100 nM | D (D: ≥ 5 and < 10) | E (E: >1 and < 5) | > 10 µM | < 100 nM | < 100 nM
20 | Cc1ccc(Oc2ccc(Nc3ncnc4sc5c(c34)CCN(C(=O)/C=C/CN[C@H]3CC[C@H](OC(F)F)CC3)C5)cc2C)cn1 [Compound 69] | < 100 nM | A (A: ≥100) | D (D: ≥ 5 and < 10) | 1 to 10 µM | < 100 nM | < 100 nM
21 | Cc1ccc(Oc2ccc(Nc3ncnc4sc5c(c34)CCN(C(=O)/C=C/CN[C@H]3CC[C@H](OCC(F)(F)F)CC3)C5)cc2C)cn1 [Compound 70] | < 100 nM | D (D: ≥ 5 and < 10) | E (E: >1 and < 5) | 1 to 10 µM | < 100 nM | < 100 nM
22 | Cc1ccc(Oc2ccc(Nc3ncnc4sc5c(c34)CCN(C(=O)/C=C/CNC3CCC(C(=O)N(C)C)CC3)C5)cc2C)cn1 (stereo not drawn) [Compound 71] | < 100 nM | A (A: ≥100) | E (E: >1 and < 5) | 1 to 10 µM | < 100 nM | < 100 nM
23 | Cc1ccc(Oc2ccc(Nc3ncnc4sc5c(c34)CCN(C(=O)/C=C/CNC34CCC(C#N)(CC3)CC4)C5)cc2C)cn1 [Compound 72] | < 100 nM | D (D: ≥ 5 and < 10) | E (E: >1 and < 5) | 1 to 10 µM | < 100 nM | < 100 nM
24 | Cc1ccc(Oc2ccc(Nc3ncnc4sc5c(c34)CCN(C(=O)/C=C/CN[C@H]3CCC[C@H](O)C3)C5)cc2C)cn1 [Compound 73] | 100 to 1000 nM | D (D: ≥ 5 and < 10) | E (E: >1 and < 5) | 1 to 10 µM | < 100 nM | < 100 nM
25 | Cc1ccc(Oc2ccc(Nc3ncnc4sc5c(c34)CCN(C(=O)/C=C/CN3CCC(O)C3)C5)cc2C)cn1 (stereo not drawn) [Compound 74] | 100 to 1000 nM | D (D: ≥ 5 and < 10) | D (D: ≥ 5 and < 10) | 1 to 10 µM | < 100 nM | < 100 nM
